Test results as given in PubChem BioAssay (NCI).
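Values below derive from 48-hour exposures of cells grown in 96-well plates, with endpoints linearly interpolated between the two concentrations bracketing the appropriate inhibition level. Abbreviation: GI50, concentration required for 50% inhibition of growth. Definition used: TGI = concentration required for complete inhibition of growth.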

Assays:
Experiment in all cases: inhibition of tumour cell growth, NCI panel, 48 h
[1] = system: MALME-3M melanoma
[2] = system: CAKI-1 renal
[3] = system: COLO 205 colon
[4] = system: IGROV1 ovarian
[5] = system: KM12 colon
[6] = system: NCI-H522 lung
[7] = system: SK-MEL-5 melanoma
[8] = system: OVCAR-5 ovarian
[9] = system: SF-295 CNS
[10] = system: SN12C renal
[11] = system: HCC-2998 colon
[12] = system: 786-0 renal
[13] = system: TK-10 renal
[14] = system: NCI-H23 lung
[15] = system: SW-620 colon
[16] = system: SNB-19 CNS
[17] = system: T-47D breast
[18] = system: DU-145 prostate
[19] = system: MDA-MB-435

Structure (SMILES)	TGI [1] [µM]	TGI [2] [µM]	TGI [3] [µM]	TGI [4] [µM]	TGI [5] [µM]	TGI [6] [µM]	TGI [7] [µM]	TGI [8] [µM]	TGI [9] [µM]	TGI [10] [µM]	TGI [11] [µM]	TGI [12] [µM]	TGI [13] [µM]	TGI [14] [µM]	TGI [15] [µM]	TGI [16] [µM]	TGI [17] [µM]	TGI [18] [µM]	TGI [19] [µM]	GI50 [10] [µM]
CCCOC(=O)C1CCC(=O)N1C(=O)C(C)Cl (configuration not stated)	> 100	> 100	> 100	> 100	> 100	> 100	> 100	> 100	> 100	> 100	> 100	> 100	> 100	> 100	> 100	> 100				
N/C(=N\S(=O)(=O)c1cccc2nsnc12)Nc1ccc(Cl)cc1	40.2			> 100	> 100	25.7	31.2	> 100	> 100	> 100		> 100	62.8	> 100	> 100	> 100	> 100	> 100		
Cc1ccc(N=NC2S/C(=C(\C#N)c3nc4ccccc4[nH]3)N(c3ccccc3)C2=O)cc1 (configuration not stated)	> 100	> 100	> 100	> 100		> 100	> 100	> 100	> 100	> 100		71.9	> 100	> 100	> 100	> 100				
CC(C)c1nc2cc(C(F)(F)F)ccc2[nH]c1=O	> 100	> 100	> 100	> 100	> 100	> 100	> 100	> 100	> 100	> 100	> 100	> 100	> 100	> 100	> 100	> 100	> 100		> 100	
C=[N+](CNC(=O)CNC(=O)C(Cc1ccc([N+](=O)[O-])cc1)NC(=O)OC(C)(C)C)C(=O)CNC(=O)C(Cc1ccc([N+](=O)[O-])cc1)NC(=O)OC(C)(C)C (configuration not stated)	> 100	> 100	> 100	> 100	> 100	79.8	> 100	> 100	> 100	> 100	> 100	> 100	> 100	> 100	> 100	> 100		> 100	62.7	
O=C1NC(=O)C(CC(C(=O)C(=O)Nc2ccccc2Cl)C(=O)c2ccc3ccccc3c2)C(=O)N1 (configuration not stated)		> 100	> 100	> 100	> 100	> 100	> 100	> 100	> 100	> 100	> 100	> 100	> 100	> 100	> 100	> 100		> 100	> 100	
O=C1CCCC2C(O)CCC[C@H]12 (some centres not stated)	> 100	> 100	> 100	> 100	> 100	> 100	> 100	> 100	> 100	> 100	> 100	> 100	> 100	> 100	> 100	> 100	> 100	> 100		
COP(=O)(Cc1ccc(/C=C/C#N)o1)OC	> 100		> 100	> 100	> 100	> 100						> 100	> 100	> 100		> 100	> 100	> 100	> 100	
O=c1[nH]c2ccc(Cl)cc2c2oc(-c3ccccc3)nc12	78	39.7	> 100	> 100	> 100	32.3	85.8	> 100	46.6	41.8	79	30	80.7	74.9	> 100	43.1	50.4		> 100	
Nc1ccc(-c2cssc2=S)cc1	> 100	> 100	> 100	> 100	> 100	> 100	> 100	> 100	> 100	94.6	> 100	> 100	> 100		> 100	> 100			> 100	
O=C(Nc1nc(C23CC4CC(CC(C4)C2)C3)cs1)c1c(O)c2ccccc2[nH]c1=O	> 100	> 100	> 100	> 100	> 100	> 100	> 100	> 100	> 100	> 100	> 100	> 100	> 100	> 100	> 100	> 100		> 100	> 100	
CCOC(O)(NC(=O)C(C(F)(F)F)C(F)(F)F)C(F)(F)F (configuration not stated)			> 100	> 100			> 100	> 100		> 100	> 100	> 100	> 100	> 100	> 100	> 100	> 100		> 100	
Nc1ccc2nc(NCc3ccc(F)cc3)cnc2c1	> 100		> 100	> 100	> 100	> 100	> 100	> 100	> 100	> 100	> 100	> 100	> 100	> 100	> 100	> 100				
N#CCCN(c1ccc(/C=C2\N=C(Cc3ccccc3)OC2=O)cc1)S(=O)(=O)c1ccccc1	> 100	> 100	> 100	> 100	> 100	> 100	> 100	> 100	> 100	> 100	> 100	> 100	> 100	> 100	> 100	> 100				
CCCCCCNC(=O)c1cc(CCc2cc(O)ccc2O)ccc1O	6.47	13.6	41.6	5.66	39.6	3.05	15.6	19.3	31.3	5.77	9.68	4.26	9.15	28.5	> 75.9	> 50.6		22.7	19.6	2.18
CCCCCCCc1cc(OC(=O)c2c(C)cc(OC)cc2O)cc(O)c1C(=O)O	37.6	43.4	37.3	55.3	46.2	48.3	40.7	32.1	50	82.9	35.6	36.8	90.2	43.1	64.5	58.3				
O=S(=O)(N/N=C1\CC2CCC1C2)c1ccccc1 (configuration not stated)	> 100	> 100	> 100	> 100	> 100	> 100	> 100	> 100	> 100	> 100		> 100	> 100	> 100	> 100	> 100		> 100	> 100	
CCOc1ccc(NC(=O)C2=C(C)NC(C)=C(C(=O)Nc3ccc(OCC)cc3)C2c2ccc(O)c(OC)c2)cc1	> 100	> 100	> 100	> 100	> 100	> 100	> 100	> 100	> 100	> 100	76.1	> 100	> 100	> 100	> 100	> 100				
Cc1ccccc1C1OC(=O)c2ccccc21 (configuration not stated)	> 100		> 100	> 100	> 100	> 100	> 100	> 100		> 100	> 100	> 100	> 100	> 100	> 100	> 100				
O=C1[C@@H]2C(c3ccc(Cl)cc3Cl)=NO[C@@H]2C(=O)N1c1ccc(Cc2ccc(N3C(=O)[C@H]4C(c5ccc(Cl)cc5Cl)=NO[C@H]4C3=O)cc2)cc1	> 100	> 100	> 100	> 100	> 100		> 100	> 100	> 100	> 100	> 100	> 100	> 100	> 100	> 100					
CC(=O)O[C@]12CCCCC1C1(O)C(O)CCCCC12 (some centres not stated)	> 100		> 100		> 100	> 100	> 100		> 100	> 100		> 100	> 100	> 100	> 100	> 100				
COc1ccccc1/C=C(\C#N)C(=O)c1ccccc1	> 100	> 100	> 100	> 100	> 100	> 100	> 100	> 100	> 100	> 100	> 100	> 100		> 100	> 100	> 100				
NC(=O)c1cccc(C2OC(COP(=O)(O)O)C(O)C2O)c1 (configuration not stated)	> 50	> 50	> 50	> 50	> 50	> 50	> 50	> 50	> 50	> 50	> 50	> 50	> 50	> 50	> 50	> 50				
Cc1c(C#N)c2ccccc2c2nc3ccccc3n12		> 100		> 100	> 100	> 100	36.5	> 100	> 100	> 100	> 100	> 100	> 100		> 100	> 100		> 100	> 100	
O=C(CC(=O)Nc1cccc(Cl)c1)NNCC(=O)Nc1nnc(-c2ccccc2)s1		> 100	> 100	> 100	> 100	> 100	> 100	> 100	> 100	> 100	> 100	84.3	> 100	> 100	> 100	> 100				
COc1cc(/C=N/n2c(Cc3ccc(Cl)cc3)n[nH]c2=O)cc(OC)c1OC	> 100	> 100	> 100		> 100			> 100	> 100	> 100	> 100	> 100		> 100	> 100	> 100	> 100		> 100	
Nc1nc(NCCO)c(N=O)c(=O)[nH]1	> 100	> 100	> 100	> 100	> 100	> 100	> 100	> 100	> 100	> 100		> 100	> 100		> 100					
COc1ccc(/C(Cl)=C(/c2ccc(O)cc2)c2ccc(OCCN(C)C)cc2)cc1	14.4	27.5	22.4	33.2	21.1	25.1	16.9	26.1	16.3	26.2	30.5	18.8	34.1	29.1	24.2	27.1				
CCOC(=O)[C@]12C(=C(c3ccccc3)O[C@H]3C=CCC[C@H]31)C(=O)C(=O)N2c1ccccc1	> 100	> 100	> 100		> 100	> 100	> 100	> 100	> 100	> 100	> 100	> 100	> 100	> 100		> 100	> 100	> 100		
